# pIC50: −log10 of the molar value. Where two headings read alike, the source gives them in different places.
# Tests used:
# [1] = system: T1, AMO-CFZ clone #1 (upregulated ABCB1); assay: cells; design: species or system AMO-CFZ clones 1 and 7; Cytotoxicity dose-response of myeloma drugs on AMO-CFZ clones with or without ABCB1, IC50; details: ABCB1 upregulated clone #1
# T1 construct: AMO-1 derived, carfilzomib-adapted, clone 1 CRISPR/Cas9 clone retaining ABCB1 overexpression
# Source text: (§1) To dissect the role of ABCB1 overexpression for the activity of standard myeloma drugs we compared the cytotoxic effects of such drugs on AMO-CFZ cells with (clone #1) or without such ABCB1 expression (clone 7) (Figure 3c and Supplementary Table S4). To score for good versus poor ABCB1-substrate myeloma drugs, we calculated the ratio of IC50 values between the ABCB1-containing and the ABCB1-deficient clone for each of the myeloma drug. […] (a) Western blot evaluation of the ABCB1 depletion in AMO-CFZ clones obtained by CRISPR/Cas9 genome editing tool. (b) Dose–response of AMO-CFZ clones with depleted ABCB1 to CFZ. Corresponding IC50 values are presented in Supplementary Table S3. (c) Dose–response of selected AMO-CFZ clones 1 and 7 to CFZ and convectional drugs used in the treatment of MM. (d) Dose–response of AMO-CFZ clones 1 and 7 to approved PI or those in clinical development. Corresponding IC50 values are presented in Supplementary Table S4. To directly address the functional role of ABCB1 for CFZ resistance, we eliminated ABCB1 protein in AMO-CFZ cells by CRISPR/Cas9 (for example, clone 7) (Figure 3a). We observed an inverse correlation between the levels of ABCB1 and myeloma cell sensitivity to CFZ (Figure 3b, Supplementary Table S3). […] Overexpressed ABCB1 is therefore a therapeutic target for CFZ-resistant myeloma.
# [2] = system: T2, AMO-CFZ clone #7 (depleted ABCB1); assay: cells; design: species or system AMO-CFZ clones 1 and 7; Cytotoxicity dose-response of myeloma drugs on AMO-CFZ clones with or without ABCB1, IC50; details: ABCB1 depleted clone #7
# T2 construct: AMO-1 derived, carfilzomib-adapted, clone 7 ABCB1 depleted by CRISPR/Cas9 (subtotal elimination)
# Source text: as §1
# AMO-CFZ = system: T3, AMO-CFZ; assay: cells; design: species or system AMO-1, AMO-BTZ, AMO-CFZ and AMO-CFZ clones #1 and #7; cell viability, MTS tetrazolium (CellTiter 96 AQueous One Solution), continuous treatment; details: Homo sapiens, AMO1, 48 h; for IC50: PI alone
# T3 construct: AMO-1 derived, carfilzomib-adapted, ABCB1 overexpressing
# Method: (§2) Generation of AMO-CFZ Ub-G67V-GFP cells AMO-CFZ cells were electroporated with a plasmid containing Ub-G76V-GFP [1] (obtained from Nico Dantuma; Addgene plasmid #11941) and subsequently cultured in the presence of selecting antibiotic G418 (500ng/ml, Gibco/Invitrogen, MA, USA). Subclones were obtained using MethoCult (StemCell Technologies, USA) and the clone with highest accumulation of fluorescence after BTZ treatment was chosen for further analysis. Assessment of cell viability Viability of cell lines was determined after 48h of treatment by MTS tetrazolium compound using CellTiter 96® AQueous One Solution) (Promega, WI, USA) according to manufactures protocol. PgP-Glo assay PgP-Glo assay (Promega, WI, USA) was performed according to manufacturer recommendations.  Figure 2 Comparison of dose–response of AMO-1 (sensitive) vs AMO-BTZ and AMO-CFZ (resistant) cells treated with PIs (BTZ and CFZ). (a) Residual activity of proteasome subunits visualized by activity-based probe labeling in intact cells after 1 h pulse treatment with indicated PIs. (b) Cell viability was measured after 48 hours of continuous treatment. Corresponding IC50 values are presented in Supplementary Table S2.  Figure 7 Sensitivity profile of ABCB1 inhibitors co-treatment with PIs used in the clinic or in clinical development in AMO-1, AMO-BTZ and AMO-CFZ cell lines. Dose–response curves of PI co-treated with NFV (10 μM) and LPV (10 μM). Corresponding IC50 values are presented in Supplementary Table S7.
# ABCB1 = ABCB1 (Homo sapiens, UniProt P08183); assay: MitoTracker Green FM and MVB003 efflux (flow cytometry) in ABCB1-overexpressing AMO-CFZ cells
# AMO-BTZ = system: T4, AMO-BTZ; assay: cells; design: species or system AMO-1, AMO-CFZ and AMO-CFZ clones #1 and #7; cell viability, MTS tetrazolium (CellTiter 96 AQueous One Solution), continuous treatment; details: Homo sapiens, AMO1, 48 h
# T4 construct: AMO-1 derived, bortezomib-adapted
# Method: as §2, with “recommendations.” for “recommendations. ”, “S2.” for “S2. ”, “Dose–response curves of PI co-treated with NFV (10 μM) and LPV (10 μM). Corresponding IC50 values are presented in Supplementary Table S7.” left out
# AMO-1 = assay: cells; design: species or system AMO-BTZ, AMO-CFZ and AMO-CFZ clones #1 and #7; cell viability, MTS tetrazolium (CellTiter 96 AQueous One Solution), continuous treatment; details: Homo sapiens, AMO1, 48 h
# Method: as §2, with “recommendations.” for “recommendations. ”, “S2.” for “S2. ”, “Dose–response curves of PI co-treated with NFV (10 μM) and LPV (10 μM). Corresponding IC50 values are presented in Supplementary Table S7.” left out
# [3] = system: T1, AMO-CFZ clone #1 (upregulated ABCB1); assay: cells; design: species or system AMO-1, AMO-BTZ, AMO-CFZ and AMO-CFZ clones #1 and #7; cell viability, MTS tetrazolium (CellTiter 96 AQueous One Solution), continuous treatment; details: Homo sapiens, AMO1, 48 h; CFZ alone
# Method: as §2
# [4] = system: T1, AMO-CFZ clone #1 (upregulated ABCB1); assay: cells; design: species or system AMO-1, AMO-BTZ, AMO-CFZ and AMO-CFZ clones #1 and #7; cell viability, MTS tetrazolium (CellTiter 96 AQueous One Solution), continuous treatment; details: Homo sapiens, AMO1, 48 h; CFZ alone; remark: listed apart in the source
# Method: as §2, with “recommendations.” for “recommendations. ”, “S2.” for “S2. ”, “Dose–response curves of PI co-treated with NFV (10 μM) and LPV (10 μM). Corresponding IC50 values are presented in Supplementary Table S7.” left out
# Sequence of ABCB1 (P08183 whole entry): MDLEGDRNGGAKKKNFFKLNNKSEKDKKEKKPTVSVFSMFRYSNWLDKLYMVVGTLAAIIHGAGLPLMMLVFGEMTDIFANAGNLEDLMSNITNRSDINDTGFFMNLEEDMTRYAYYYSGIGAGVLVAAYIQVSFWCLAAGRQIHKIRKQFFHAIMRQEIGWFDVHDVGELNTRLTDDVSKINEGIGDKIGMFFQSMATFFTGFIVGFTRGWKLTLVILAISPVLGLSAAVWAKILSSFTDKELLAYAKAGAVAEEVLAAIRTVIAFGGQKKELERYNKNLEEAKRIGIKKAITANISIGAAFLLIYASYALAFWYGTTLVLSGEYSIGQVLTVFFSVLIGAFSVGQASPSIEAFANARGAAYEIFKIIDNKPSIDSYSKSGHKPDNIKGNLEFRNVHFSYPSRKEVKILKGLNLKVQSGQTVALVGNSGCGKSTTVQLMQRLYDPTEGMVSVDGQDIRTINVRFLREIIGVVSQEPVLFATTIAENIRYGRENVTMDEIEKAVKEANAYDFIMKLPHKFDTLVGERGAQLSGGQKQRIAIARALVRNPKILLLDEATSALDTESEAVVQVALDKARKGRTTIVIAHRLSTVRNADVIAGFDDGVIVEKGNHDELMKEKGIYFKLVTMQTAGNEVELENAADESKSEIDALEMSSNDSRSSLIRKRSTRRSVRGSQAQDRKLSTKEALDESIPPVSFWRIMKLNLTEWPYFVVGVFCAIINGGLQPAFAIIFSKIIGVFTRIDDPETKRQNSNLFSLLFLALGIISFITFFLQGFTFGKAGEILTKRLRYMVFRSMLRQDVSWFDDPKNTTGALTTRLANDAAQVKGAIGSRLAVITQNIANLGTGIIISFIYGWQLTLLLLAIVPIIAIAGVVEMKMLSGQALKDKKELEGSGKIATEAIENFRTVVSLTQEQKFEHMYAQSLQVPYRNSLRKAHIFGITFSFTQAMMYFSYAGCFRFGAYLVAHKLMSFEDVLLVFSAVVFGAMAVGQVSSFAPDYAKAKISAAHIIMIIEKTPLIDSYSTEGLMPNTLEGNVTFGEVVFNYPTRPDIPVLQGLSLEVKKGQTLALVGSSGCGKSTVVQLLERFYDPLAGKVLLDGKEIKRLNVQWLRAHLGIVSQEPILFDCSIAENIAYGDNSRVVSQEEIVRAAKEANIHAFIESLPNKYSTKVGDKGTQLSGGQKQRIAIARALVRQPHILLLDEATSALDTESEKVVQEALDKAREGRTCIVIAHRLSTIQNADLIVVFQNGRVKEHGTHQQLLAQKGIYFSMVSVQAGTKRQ
compound,measurement,setting,value
CC(C)C[C@H](NC(=O)[C@@H](NC(=O)c1cccc(-c2ccccc2)n1)[C@@H](C)O)B(O)O [Delanzomib],pIC50,[1],6.53
same,pIC50,[2],7.09
same,IC50,AMO-CFZ,1040 nM
Cc1[nH]c2ccccc2c1CCNCc1ccc(/C=C/C(=O)NO)cc1 [Panobinostat],pIC50,[1],6.66
same,pIC50,[2],7.31
C[C@@]12OC(=O)[C@]1([C@@H](O)[C@@H]1C=CCCC1)NC(=O)[C@@H]2CCCl [Marizomib],pIC50,[1],7.21
same,pIC50,[2],7.48
"COC(=O)[C@H]1[C@H]2C[C@@H]3c4[nH]c5cc(OC)ccc5c4CCN3C[C@H]2C[C@@H](OC(=O)c2cc(OC)c(OC)c(OC)c2)[C@@H]1OC [RSP, reserpine]",MitoTracker Green FM and MVB003 efflux (flow cytometry) in ABCB1-overexpressing,ABCB1,"Addition of VPM or reserpine (RSP) in the micromolar range led to a sizable, dose-dependent increase in cellular fluorescence"
"CC(C)C[C@H](NC(=O)[C@H](Cc1ccccc1)NC(=O)c1cnccn1)B(O)O [BTZ, bortezomib]",pIC50,[1],7.16
same,pIC50,[2],7.57
same,pIC50,AMO-BTZ; read-out: BTZ,5.87
same,IC50,AMO-CFZ,156 nM
same,pIC50,AMO-CFZ; read-out: BTZ,7.05
same,pIC50,AMO-1; read-out: BTZ,8.20
"CC(C)C[C@H](NC(=O)[C@H](CCc1ccccc1)NC(=O)CN1CCOCC1)C(=O)N[C@@H](Cc1ccccc1)C(=O)N[C@@H](CC(C)C)C(=O)[C@@]1(C)CO1 [CFZ, carfilzomib]",pIC50,[1],6.21
same,pIC50,[2],7.11
same,pIC50,AMO-BTZ; read-out: CFZ,7.17
same,pIC50,AMO-CFZ; read-out: CFZ,6.05
same,IC50,[3],824 nM
same,IC50,[4],796 nM
same,pIC50,AMO-1; read-out: CFZ,8.32
COC[C@H](NC(=O)c1cnc(C)s1)C(=O)N[C@@H](COC)C(=O)N[C@@H](Cc1ccccc1)C(=O)[C@@]1(C)CO1 [Oprozomib],pIC50,[1],5.83
same,pIC50,[2],6.66
same,IC50,AMO-CFZ,1320 nM
CC(C)C[C@H](NC(=O)CNC(=O)c1cc(Cl)ccc1Cl)B(O)O [Ixazomib],pIC50,[1],6.16
same,pIC50,[2],6.46
same,IC50,AMO-CFZ,1280 nM

# Source: PMC5808083, “Carfilzomib resistance due to ABCB1/MDR1 overexpression is overcome by nelfinavir and lopinavir in multiple myeloma” (Leukemia, 2017)
